Where two headings read alike, the source gives them in different places.
Tests used:
[1] = 16-membered ring
[2] = biological target: T1, Mcl-1/Bim interaction, recombinant human Mcl-1 (171-327) (Homo sapiens, UniProt Q07820); experiment: Cell free Mcl-1: Bim Affinity Assay (Mcl-1 HTRF); type: binding; conditions: TR-FRET, 0.1 nM Mcl-1 (171-327), 0.05 nM biotin-Bim (51-76)
T1 construct: made in house
Outline: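 Compounds were mixed with the protein and a biotinylated Bim peptide spanning human residues 51-76. Plates were left overnight, then TR-FRET signal was measured. A four-parameter sigmoidal model applied to duplicate competition data gave IC50.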

[3] = test system: OPM-2 human multiple myeloma cell line; experiment: Cell Viability Assay (OPM-2 10 FBS); type: cell-based; conditions: Homo sapiens, OPM-2, 16 h, OPM-2 cells, 16 h, CellTiter-Glo
Outline: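 ATP-based luminescence (CellTiter-Glo) measured after a 16 h compound treatment of OPM-2 cells seeded at 3000 cells/well in 10% FBS medium. IC50 values derived by 4-parameter logistic fitting of serial dilutions.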

[4] = from C=CC[C@H](C)NS(=O)(=O)NC(=O)c1ccc2c(c1)N(C[C@@H]1CC[C@H]1[C@@H](O)C=C)C[C@@]1(CCCc3cc(Cl)ccc31)CO2, rcm bond, Hoveyda-Grubbs II, AcOH

T1 sequence (Q07820 171-327): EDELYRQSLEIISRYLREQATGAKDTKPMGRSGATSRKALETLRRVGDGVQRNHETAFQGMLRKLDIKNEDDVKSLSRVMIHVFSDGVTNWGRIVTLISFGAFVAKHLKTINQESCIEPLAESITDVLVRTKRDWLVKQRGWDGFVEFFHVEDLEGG

Compound | IC50 [2] [nM] | IC50 [3] [nM] | ring closure, yield after HPLC [1, 4] [%] | further results
C[C@H]1C/C=C\[C@H](O)[C@@H]2CC[C@H]2CN2C[C@@]3(CCCc4cc(Cl)ccc43)COc3ccc(cc32)C(=O)NS(=O)(=O)N1 (single isomer, unassigned) [Example 62] | 0.266 | 362 | 2.1 | –
(1S,3′R,6′R,7′S,8′E)-6-chloro-7′-hydroxy-9′-bromo-3,4-dihydro-2H,15′H-spiro[naphthalene-1,22′-[20]oxa[13]thia[1,14]diazatetracyclo[14.7.2.0^3,6.0^19,24]pentacosa[8,16,18,24]tetraen]-15′-one 13′,13′-dioxide or (1S,3′R,6′R,7′R,8′E)-6-chloro-7′-hydroxy-9′-bromo-3,4-dihydro-2H,15′H-spiro[naphthalene-1,22′-[20]oxa[13]thia[1,14]diazatetracyclo[14.7.2.0^3,6.0^19,24]pentacosa[8,16,18,24]tetraen]-15′-one 13′,13′-dioxide | – | – | – | ring closure, yield after HPLC ([1]; amide bond, EDC/DMAP/TEA, DCM, 5.0 mM, […]): 13%
C=CCCC(C#N)S(=O)(=O)NC(=O)c1ccc2c(c1)N(C[C@@H]1CC[C@H]1[C@@H](O)/C=C/CCC)C[C@@]1(CCCc3cc(Cl)ccc31)CO2 (single isomer, unassigned) | – | – | – | ring closure, yield after HPLC ([1]; the molecule shown is the open-chain precursor, rcm bond, Hoveyda-Grubbs II (20 mol%), reduced pressure, AcOH, 2.9 mM, […]): 2.58%
O=C1NS(=O)(=O)[C@H]2CCC[C@@H](C=C[C@H](O)[C@@H]3CC[C@H]3CN3C[C@@]4(CCCc5cc(Cl)ccc54)COc4ccc1cc43)C2 (single isomer, unassigned) | – | – | – | ring closure, yield after HPLC ([1]; from NS(=O)(=O)[C@H]1CCC[C@@H](/C=C/[C@H](O)[C@@H]2CC[C@H]2CN2C[C@@]3(CCCc4cc(Cl)ccc43)COc3ccc(C(=O)O)cc32)C1, amide bond, EDC/DMAP, DCM, 2.0 mM, 16.0 h): 4.7%

Now from value to compound, other results behind:

IC50 [2] [nM] | IC50 [3] [nM] | Compound | ring closure, yield after HPLC [1, 4] [%] | further results
0.241 | 278 | C[C@H]1C/C=C/[C@H](O)[C@@H]2CC[C@H]2CN2C[C@@]3(CCCc4cc(Cl)ccc43)COc3ccc(cc32)C(=O)NS(=O)(=O)N1 [Example 61, (1S,3′R,6′R,7′S,8′E,11′S)-6-chloro-7′-hydroxy-11′-methyl-3,4-dihydro-2H,15′H-spiro[naphthalene-1,22′-[20]oxa[13]thia[1,12,14]triazatetracyclo[14.7.2.0^3,6.0^19,24]pentacosa[8,16,18,24]tetraen]-15′-one 13,13′-dioxide] | 50.1 | –
0.66 | 1280 | CCN1CC/C=C/[C@H](O)[C@@H]2CC[C@H]2CN2C[C@@]3(CCCc4cc(Cl)ccc43)COc3ccc(cc32)C(=O)NS1(=O)=O (single isomer, unassigned) [Example 29] | – | ring closure, yield after HPLC ([1]; from C=CCCN(CC)S(=O)(=O)NC(=O)c1ccc2c(c1)N(C[C@@H]1CC[C@H]1[C@@H](O)/C=C/CCC)C[C@@]1(CCCc3cc(Cl)ccc31)CO2, rcm bond, Hoveyda-Grubbs II, AcOH, 2.9 mM): 22.2%
